Source: patent publication US8754115B2, “Fungicidal pyrazoles” (E I du Pont de Nemours and Company, priority 2010, dated 2014)
Marks after values point to notes of the source that are not given here.

Key:
Type in all cases: in vivo
[1] = tested on: Puccinia recondite f. sp. tritici; test: Test E2: preventive spray on wheat seedlings, visual disease rating (wheat leaf rust)
From the text: (§1) General protocol for preparing test suspensions for Tests A-F: the test compounds were first dissolved in acetone in an amount equal to 3% of the final volume and then suspended at the desired concentration (in ppm) in acetone and purified water (50/50 mix by volume) containing 250 ppm of the surfactant Trem® 014 (polyhydric alcohol esters). The resulting test suspensions were then used in Tests A-F. Spraying a 200 ppm test suspension to the point of run-off on the test plants was the equivalent of a rate of 800 g/ha. Unless otherwise indicated, the rating values indicate a 200 ppm test suspension was used. (An asterisk “*” next to the rating value indicates a 40 ppm test suspension was used.)
The test suspension was sprayed to the point of run-off on wheat seedlings. The following day the seedlings were inoculated with a spore suspension of Puccinia recondite f. sp. tritici (the causal agent of wheat leaf rust) and incubated in a saturated atmosphere at 20° C. for 24 h, and then moved to a growth chamber at 20° C. for 7 days, after which time visual disease ratings were made.
(§2) Results for Tests A-F are given in Table A. In the Table, a rating of 100 indicates 100% disease control and a rating of 0 indicates no disease control (relative to the controls). A dash (-) indicates no test results. An asterisk “*” next to the rating value indicates a 40 ppm test suspension was used.

Alternaria solani = test: Test B: preventive spray on tomato seedlings, visual disease rating (tomato early blight)
From the text: as §1
(§3) The test suspension was sprayed to the point of run-off on tomato seedlings. The following day the seedlings were inoculated with a spore suspension of Alternaria solani (the causal agent of tomato early blight) and incubated in a saturated atmosphere at 27° C. for 48 h, and then moved to a growth chamber at 20° C. for 5 days, after which time visual disease ratings were made.
as §2

Septoria tritici = test: Test D: preventive spray on wheat seedlings, visual disease rating (wheat leaf blotch)
From the text: as §1
The test suspension was sprayed to the point of run-off on wheat seedlings. The following day the seedlings were inoculated with a spore suspension of Septoria tritici (the causal agent of wheat leaf blotch) and incubated in saturated atmosphere at 24° C. for 48 h, and then moved to a growth chamber at 20° C. for 19 days, after which time visual disease ratings were made.
as §2

[2] = tested on: Puccinia recondite f. sp. tritici; test: Test E1: curative spray on wheat seedlings after inoculation, visual disease rating (wheat leaf rust)
From the text: as §1
Wheat seedlings were inoculated with a spore suspension of Puccinia recondite f. sp. tritici (the causal agent of wheat leaf rust) and incubated in a saturated atmosphere at 20° C. for 24 h, and then moved to a growth chamber at 20° C. for 2 days. After 2 days, the test suspension was sprayed to the point of run-off on the wheat seedlings, and then the seedlings were moved back to the growth chamber at 20° C. for 6 days. Upon removal, visual disease ratings were made.
as §2

Septoria nodorum = test: Test C: preventive spray on wheat seedlings, visual disease rating (Septoria glume blotch)
From the text: as §1
The test suspension was sprayed to the point of run-off on wheat seedlings. The following day the seedlings were inoculated with a spore suspension of Septoria nodorum (the causal agent of Septoria glume blotch) and incubated in a saturated atmosphere at 24° C. for 48 h, and then moved to a growth chamber at 20° C. for 6 days, after which time visual disease ratings were made.
as §2

[3] = tested on: Blumeria graminis f. sp. tritici; test: Test F: preventive spray on wheat seedlings, visual disease rating (wheat powdery mildew)
From the text: as §1
The test suspension was sprayed to the point of run-off on wheat seedlings. The following day the seedlings were inoculated with a spore dust of Blumeria graminis f. sp. tritici, (also known as Erysiphe graminis f. sp. tritici, the causal agent of wheat powdery mildew) and incubated in a growth chamber at 20° C. for 8 days, after which time visual disease ratings were made.
as §2

Botrytis cinerea = test: Test A: preventive spray on tomato seedlings, visual disease rating (tomato Botrytis)
From the text: as §1
as §3, with “Botrytis cinerea” for “Alternaria solani”, “Botrytis)” for “early blight)”, “in” for “in a”, “20°” for “27°”, “24°” for “20°”, “3” for “5”
as §2

[4] = asterisk: 40 ppm test suspension
[5] = no asterisk: standard test suspension, not 40 ppm
[6] = no asterisk: standard test suspension, not 40 ppm, 100 = 100% disease control, 0 = none

| Structure (SMILES) | Test E2 rating (% disease control) [1, 4] | Test B rating (% disease control) (Alternaria solani; [4]) | Test D rating (% disease control) (Septoria tritici; [4]) | Test E1 rating (% disease control) [2, 4] | Test C rating (% disease control) (Septoria nodorum; [4]) | Test F rating (% disease control) [3, 4] | Test E2 rating (% disease control) [1, 5] [%] | Test B rating (% disease control) (Alternaria solani; [5]) [%] | Test D rating (% disease control) (Septoria tritici; [5]) [%] | Test C rating (% disease control) (Septoria nodorum; [5]) [%] | Test A rating (% disease control) (Botrytis cinerea; [6]) [%] | Test F rating (% disease control) [3, 5] [%] | Test E1 rating (% disease control) [2, 5] [%] | Test A rating (% disease control) (Botrytis cinerea; [4]) |
| --- | --- | --- | --- | --- | --- | --- | --- | --- | --- | --- | --- | --- | --- | --- |
| Cc1nn(C)c(-c2ccc(F)cc2F)c1C(O)c1ccc(F)cc1Cl (stereo not shown) [compound 71] | 99* % | 78* % | 100* % | 88* % | 73* % | 99* % |  |  |  |  |  |  |  |  |
| Cc1nn(C)c(-c2c(F)cccc2Cl)c1C(O)c1ccc(F)cc1Br (stereo not shown) [compound 37] |  |  |  |  |  |  | 100 | 99 | 100 | 100 | 100 | 100 |  |  |
| Cc1nn(C)c(-c2ccc(F)cc2Br)c1C(O)c1ccc(F)cc1F (stereo not shown) [compound 76] |  |  |  |  |  |  | 100 | 99 | 100 | 60 |  | 100 | 99 |  |
| COc1nn(C)c(-c2c(F)cc(F)cc2Cl)c1C(O)c1ccc(F)cc1Cl (stereo not shown) [compound 141] | 99* % |  | 100* % |  | 97* % | 99* % |  |  |  |  |  |  |  | 100* % |
| COc1ccc(C(O)c2c(OC)nn(C)c2-c2c(F)cccc2Cl)c(F)c1 (stereo not shown) [compound 143] | 99* % |  | 100* % |  | 0* % | 98* % |  |  |  |  |  |  |  | 100* % |
| Cc1nn(C)c(-c2c(Cl)cccc2Cl)c1C(O)c1ccc(F)cc1F (stereo not shown) [compound 74] |  |  |  |  |  |  | 99 | 100 | 99 | 92 |  | 98 | 0 |  |
| Cc1nn(C)c(-c2ccccc2I)c1C(=O)c1ccc(F)cc1Br [compound 81] |  |  |  |  |  |  | 0 | 46 | 0 | 0 | 54 | 99 |  |  |
| Cc1nn(C)c(-c2ccc(F)cc2Br)c1C(=O)c1ccc(F)cc1F [compound 73] | 0* % | 60* % | 14* % | 0* % | 0* % | 34* % |  |  |  |  |  |  |  |  |
| Cc1nn(C)c(-c2ccc(F)cc2Cl)c1Nc1ccc(F)cc1F [compound 49] | 74* % | 0* % | 96* % |  | 0* % | 87* % |  |  |  |  |  |  |  | 100* % |
| Cc1nn(C)c(-c2ccc(Cl)cc2Cl)c1C(=O)c1ccc(F)cc1F [compound 89] |  |  |  |  |  |  | 89 | 0 | 93 | 0 |  | 100 | 0 |  |
| COc1nn(C)c(-c2c(F)cccc2Cl)c1C(O)c1c(F)ccc(F)c1F (stereo not shown) [compound 145] | 82* % |  | 35* % |  | 0* % | 73* % |  |  |  |  |  |  |  | 26* % |
| Cc1nn(C)c(-c2c(Cl)cncc2Cl)c1C(=O)c1ccc(F)cc1Cl [compound 96] | 0* % | 0* % | 0* % |  | 0* % | 26* % |  |  |  |  |  |  |  | 60* % |
| Cc1nn(C)c(-c2c(F)cccc2Cl)c1C(O)c1ccc(Cl)cc1Cl (stereo not shown) [compound 90] | 100* % | 100* % | 100* % | 74* % | 99* % |  |  |  |  |  |  | 100 |  |  |
| Cn1nc(OC(F)F)c(C(O)c2ccc(F)cc2Cl)c1-c1c(F)cccc1F (stereo not shown) [compound 128] | 85* % |  | 100* % |  | 0* % | 56* % |  |  |  |  |  |  |  | 43* % |
| Cc1nn(C)c(-c2ccccc2I)c1C(O)c1ccc(F)cc1Br (stereo not shown) [compound 88] |  |  |  |  |  |  | 68 | 0 | 99 | 0 |  | 89 | 0 |  |
| Cc1nn(C)c(-c2c(F)cccc2F)c1C(F)c1ccc(Cl)cc1Cl (stereo not shown) [Compound 92] | 99* % | 99* % | 100* % | 74* % | 94* % | 100* % |  |  |  |  |  |  |  |  |
| Cc1nn(C)c(-c2c(Cl)cccc2Cl)c1C(O)c1ccc(Cl)cc1 (stereo not shown) [compound 77] |  |  |  |  |  |  | 79 | 93 | 99 | 0 |  | 89 | 0 |  |
| COc1nn(C)c(-c2c(F)cccc2Cl)c1C(O)c1c(F)ccc(F)c1Cl (stereo not shown) [compound 144] | 100* % |  | 100* % |  | 0* % | 98* % |  |  |  |  |  |  |  | 78* % |
| COc1ccc(C(O)c2c(OC)nn(C)c2-c2c(F)cccc2Cl)c(Cl)c1 (stereo not shown) [compound 142] | 100* % |  | 100* % |  | 60* % | 100* % |  |  |  |  |  |  |  | 100* % |
| Cn1nc(Br)c(C(=O)c2ccc(F)cc2F)c1-c1ccc(F)cc1Cl [compound 48] |  |  |  |  |  |  | 0 | 0 | 99 | 0 | 26 | 0 |  |  |
| COc1nn(C)c(-c2c(F)cccc2Cl)c1C(O)c1ccc(F)cc1C (stereo not shown) [compound 140] | 99* % |  | 100* % |  | 99* % | 100* % |  |  |  |  |  |  |  | 100* % |
| Cc1cc(F)ccc1C(O)c1c(C)nn(C)c1-c1c(F)cccc1F (stereo not shown) [compound 129] |  |  |  |  |  |  | 99 |  | 100 |  | 100 | 100 |  |  |
| COc1cc(F)c(-c2c(C(O)c3ccc(F)cc3F)c(C)nn2C)c(F)c1 (stereo not shown) [compound 172] | 100* % |  | 100* % |  |  | 100* % |  |  |  |  |  |  |  | 99* % |
